Test results taken from ChEMBL document CHEMBL2163194, “Production of cytotoxic glidobactins/luminmycins by Photorhabdus asymbiotica in liquid media and live crickets” (J Nat Prod, 2012).

Key:
[1] = tested on: NIH3T3; test: Cytotoxicity against mouse NIH/3T3 cells assessed as reduction in cell viability after 72 hrs by MTT assay; assay type: cell-based; conditions: nih3t3, 72 h
[2] = tested on: MIA PaCa-2; test: Cytotoxicity against human MIAPaCa2 cells assessed as reduction in cell viability after 72 hrs by MTT assay; assay type: functional, cell-based; conditions: MIA PaCa-2, 72 h
[3] = Inhibition of 20S proteasome in human MIAPaCa2 cells after 90 mins by fluorescence-based […]; assay type: cell-based; conditions: mia paca-2

Which results are given for CCCCCCC/C=C/C=C/C(=O)N[C@H](C(=O)N[C@H]1C[C@@H](O)CCNC(=O)/C=C/[C@H](C)NC1=O)[C@@H](C)O [GLIDOBACTIN A]?
Activity [1]: Non-toxic; IC50 [2]: 7 nM; IC50 [3]: 69 nM

For CC(C)CCCCC/C=C/C=C/C(=O)N[C@H](C(=O)N[C@H]1CCCCNC(=O)/C=C/[C@H](C)NC1=O)[C@@H](C)O [LUMINMYCIN D], which Activity [1] is on record?
The Activity was “Non-toxic”.

And the IC50 [2]?
Its IC50 is 110 nM.

What about the IC50 [3] of the same molecule?
The IC50 was 380 nM.

Which Activity [1] does the source give for CCCCCCC/C=C/C=C/C(=O)N[C@H](C(=O)N[C@H]1CCCCNC(=O)/C=C/[C@H](C)NC1=O)[C@@H](C)O [LUMINMYCIN A] here?
The Activity was “Non-toxic”.

And the IC50 [2]?
The IC50 was 18 nM.

What about the IC50 [3] of the same molecule?
Its IC50 is 88 nM.
